Experimental data: US20160280688A1, “SUBSTITUTED PHENYLALANINE DERIVATIVES” (BAYER PHARMA AKTIENGESELLSCHAFT, priority 2013, published 2016)
Structures can show the parent of a compound that is named as a salt.

Assays:
Type in all cases: biochemical
human plasmin = biological target: T1, human plasmin (Homo sapiens, UniProt P00747); experiment: Measurement of plasmin inhibition (fluorogenic peptide substrate MeOSuc-Ala-Phe-Lys-AMC); conditions: plasmin from Kordia, 15 min preincubation, 30 min at 22° C., fluorescence
T1 construct: purchased Kordia
Protocol: The plasmin inhibition of the inventive substances is determined using a biochemical test system which utilizes the reaction of a peptidic plasmin substrate to determine the enzymatic activity of human plasmin. Here, plasmin cleaves from the peptic plasmin substrate the C-terminal aminomethylcoumarin (AMC), the fluorescence of which is measured. The determinations are carried out in microtitre plates.
Test substances are dissolved in dimethyl sulphoxide and serially diluted in dimethyl sulphoxide (3000 μM to 0.0078 μM; resulting final concentrations in the test: 50 μM to 0.00013 μM). In each case 1 μl of the diluted substance solutions are placed into the wells of white microtitre plates from Greiner (384 wells). Subsequently, the following are added successively: 20 μl of assay buffer (50 mmol/l Tris buffer pH 7.4; 100 mmol/l sodium chloride; 5 mmol/l calcium chloride; 0.1% bovine serum albumin) and 20 μl of plasmin from Kordia (0.3 μg/ml in assay buffer). After 15 min of incubation, the enzyme reaction is started by addition of 20 μl of the plasmin substrate MeOSuc-Ala-Phe-Lys-AMC dissolved in assay buffer (150 μM in assay buffer) from Bachem, the mixture is incubated at room temperature (22° C.) for 30 min and fluorescence is then measured (excitation: 360 nm, emission: 460 nm). The measured emissions of the test batches with test substance are compared to those of control batches without test substance (only dimethyl sulphoxide instead of test substance in dimethyl sulphoxide), and ICso values are calculated from the concentration/activity relationships.

human and animal plasma = experiment: Determination of the anticoagulatory activity: activated partial thromboplastin time (aPTT) in plasma; conditions: in vitro in plasma, C.K. Prest kit, 3 min at 37° C.
Protocol: The anticoagulatory activity of the test substances is determined in vitro in human and animal plasma (for example mouse, rat, rabbit, pig and dog plasma). To this end, blood is drawn off in a mixing ratio of sodium citrate/blood of 1:9 using a 0.11 molar sodium citrate solution as receiver. Immediately after the blood has been drawn off, it is mixed thoroughly and centrifuged at about 4000 g for 15 minutes. The supernatant is pipetted off.
The activated partial thromboplastin time (aPTT) is determined in the presence of varying concentrations of test substance or the corresponding solvent using a commercial test kit (C.K. Prest from Diagnostica Stago). The test compounds are incubated with the plasma and the PTT reagent (cephalin, kaolin) at 37° C. for 3 minutes. Coagulation is then started by addition of a 25 mM aqueous calcium chloride solution, and the time when coagulation occurs is determined. The concentration of test substance which brings about a 1.5-fold extension of the aPTT is determined Activity data from this test are listed in Table B below: […]

human factor XIa = biological target: T2, human factor XIa (Homo sapiens, UniProt P03951); experiment: Measurement of FXIa inhibition (fluorogenic peptide substrate Boc-Glu(OBzl)-Ala-Arg-AMC); conditions: factor XIa from Kordia, 15 min preincubation, 30 min at 22° C., fluorescence
T2 construct: purchased Kordia
T2 sequence (P03951 388-625 limits assumed): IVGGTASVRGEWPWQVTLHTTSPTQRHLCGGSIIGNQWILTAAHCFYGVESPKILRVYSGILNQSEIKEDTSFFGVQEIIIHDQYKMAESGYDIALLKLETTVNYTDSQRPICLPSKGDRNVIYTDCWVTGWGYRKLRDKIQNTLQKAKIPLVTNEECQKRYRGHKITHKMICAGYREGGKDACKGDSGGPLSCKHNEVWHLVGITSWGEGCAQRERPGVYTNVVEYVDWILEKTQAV
T2 sequence (P03951 19-387 partner limits assumed): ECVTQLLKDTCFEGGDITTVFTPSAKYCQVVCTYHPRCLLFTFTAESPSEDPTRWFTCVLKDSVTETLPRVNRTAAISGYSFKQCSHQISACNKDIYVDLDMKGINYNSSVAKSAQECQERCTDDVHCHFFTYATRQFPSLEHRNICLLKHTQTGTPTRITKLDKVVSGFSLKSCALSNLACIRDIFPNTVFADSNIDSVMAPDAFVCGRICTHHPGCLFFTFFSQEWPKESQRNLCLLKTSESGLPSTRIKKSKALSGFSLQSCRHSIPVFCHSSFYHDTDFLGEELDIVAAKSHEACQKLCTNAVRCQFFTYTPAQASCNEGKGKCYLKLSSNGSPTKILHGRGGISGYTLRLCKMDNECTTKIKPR

T1 sequence (P00747 581-810 limits assumed): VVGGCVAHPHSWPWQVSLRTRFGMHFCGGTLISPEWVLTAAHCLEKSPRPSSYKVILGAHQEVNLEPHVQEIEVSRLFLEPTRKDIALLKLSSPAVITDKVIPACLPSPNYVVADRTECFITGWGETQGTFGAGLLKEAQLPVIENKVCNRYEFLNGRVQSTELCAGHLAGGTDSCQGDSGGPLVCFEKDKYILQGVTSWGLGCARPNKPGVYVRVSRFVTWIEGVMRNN
T1 sequence (P00747 97-580 partner limits assumed): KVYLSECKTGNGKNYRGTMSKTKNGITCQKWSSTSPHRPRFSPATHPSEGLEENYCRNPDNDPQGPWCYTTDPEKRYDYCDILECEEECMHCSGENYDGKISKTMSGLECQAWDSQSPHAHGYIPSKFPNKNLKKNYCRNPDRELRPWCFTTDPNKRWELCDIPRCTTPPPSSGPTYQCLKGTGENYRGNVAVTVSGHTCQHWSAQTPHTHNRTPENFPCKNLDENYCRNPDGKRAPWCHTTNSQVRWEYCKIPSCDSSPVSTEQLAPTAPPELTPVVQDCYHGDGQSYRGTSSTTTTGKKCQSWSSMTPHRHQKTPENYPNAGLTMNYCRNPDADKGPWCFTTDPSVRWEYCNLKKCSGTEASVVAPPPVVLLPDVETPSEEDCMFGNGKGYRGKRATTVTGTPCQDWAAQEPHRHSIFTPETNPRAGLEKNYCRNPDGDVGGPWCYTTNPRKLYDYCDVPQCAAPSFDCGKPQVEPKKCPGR

**Q.** How did the IC50 (human plasmin) turn out when `CC(C)c1nc2c(F)c(F)c(-c3ccc(C[C@H](NC(=O)[C@H]4CC[C@H](CN)CC4)C(=O)Nc4ccc5[nH]c(=O)[nH]c5c4)cc3)cc2[nH]1` [Example 35, N-alpha-{[trans-4-(Aminomethyl)cyclohexyl]carbonyl}-4-(4,5-difluoro-2-isopropyl-1H-benzimidazol-6-yl)-N-(2-oxo-2,3-dihydro-1H-benzimidazol-5-yl)-L-phenylalaninamide hydrochloride] was run?
**A.** 1.5 nM

**Q.** And the “aPTT (concentration of test substance which brings about a 1.5-fold extension of the aPTT)” value (human and animal plasma)?
**A.** 0.54 µmol/L

**Q.** What about the IC50 (human factor XIa) of the same compound?
**A.** 6.9 nM

**Q.** How did the IC50 (human plasmin) turn out when `Cc1cc2nc(C3CC3)nn2cc1-c1ccc(C[C@H](NC(=O)[C@H]2CC[C@H](CN)CC2)C(=O)Nc2ccc3[nH]c(=O)[nH]c3c2)cc1` [Example 36, N-alpha-{[trans-4-(Aminomethyl)cyclohexyl]carbonyl}-4-(2-cyclopropyl-7-methyl[1,2,4]triazolo[1,5-a]pyridin-6-yl)-N-(2-oxo-2,3-dihydro-1H-benzimidazol-5-yl)-L-phenylalaninamide hydrochloride] was run?
**A.** 1.2 nM

**Q.** What about the “aPTT (concentration of test substance which brings about a 1.5-fold extension of the aPTT)” value (human and animal plasma) of the same compound?
**A.** 0.08 µmol/L

**Q.** And the IC50 (human factor XIa)?
**A.** 3.6 nM

**Q.** Which IC50 (human plasmin) does the source give for `Cc1cc2nc(C(C)C)[nH]c2nc1-c1ccc(C[C@H](NC(=O)[C@H]2CC[C@H](CN)CC2)C(=O)Nc2ccc3[nH]c(=O)[nH]c3c2)cc1` [Example 37, N-alpha-{[trans-4-(Aminomethyl)cyclohexyl]carbonyl}-4-(2-isopropyl-6-methyl-3H-imidazo[4,5-b]pyridin-5-yl)-N-(2-oxo-2,3-dihydro-1H-benzimidazol-5-yl)-L-phenylalaninamide hydrochloride] here?
**A.** 0.5 nM

**Q.** What about the “aPTT (concentration of test substance which brings about a 1.5-fold extension of the aPTT)” value (human and animal plasma) of the same compound?
**A.** 0.06 µmol/L

**Q.** And the IC50 (human factor XIa)?
**A.** 4.9 nM
